This is an account of results in ChEMBL document CHEMBL1201862, “PubChem BioAssay data set” (2004).

The source made the active and inactive calls.

Cytochrome P450 2D6, sequence (P10635 whole entry): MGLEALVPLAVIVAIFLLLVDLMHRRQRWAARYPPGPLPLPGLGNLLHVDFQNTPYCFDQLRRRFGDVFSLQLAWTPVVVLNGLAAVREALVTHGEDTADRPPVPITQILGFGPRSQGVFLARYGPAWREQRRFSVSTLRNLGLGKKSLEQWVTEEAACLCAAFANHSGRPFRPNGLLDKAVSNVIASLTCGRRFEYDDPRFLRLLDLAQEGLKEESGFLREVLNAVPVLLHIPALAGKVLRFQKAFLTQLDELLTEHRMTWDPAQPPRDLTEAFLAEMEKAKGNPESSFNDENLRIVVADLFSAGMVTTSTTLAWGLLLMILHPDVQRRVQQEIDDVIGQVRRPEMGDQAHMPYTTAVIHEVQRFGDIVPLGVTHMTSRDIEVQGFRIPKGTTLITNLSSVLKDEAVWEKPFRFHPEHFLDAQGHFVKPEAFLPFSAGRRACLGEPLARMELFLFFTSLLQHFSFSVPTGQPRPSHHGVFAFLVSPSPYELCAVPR
Cytochrome P450 2C19, sequence (P33261 whole entry): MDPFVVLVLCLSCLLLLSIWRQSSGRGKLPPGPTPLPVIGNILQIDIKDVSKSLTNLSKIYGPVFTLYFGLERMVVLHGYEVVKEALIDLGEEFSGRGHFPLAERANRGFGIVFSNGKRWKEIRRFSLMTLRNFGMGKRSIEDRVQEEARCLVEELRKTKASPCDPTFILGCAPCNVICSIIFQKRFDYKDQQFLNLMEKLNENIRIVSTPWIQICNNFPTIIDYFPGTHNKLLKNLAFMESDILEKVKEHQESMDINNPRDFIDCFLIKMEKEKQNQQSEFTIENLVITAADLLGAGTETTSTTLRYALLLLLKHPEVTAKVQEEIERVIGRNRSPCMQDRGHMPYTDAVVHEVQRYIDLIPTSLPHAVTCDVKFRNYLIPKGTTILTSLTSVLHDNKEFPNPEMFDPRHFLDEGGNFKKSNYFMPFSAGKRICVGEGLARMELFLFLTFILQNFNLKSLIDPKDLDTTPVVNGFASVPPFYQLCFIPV

In one assay the target is Cytochrome P450 3A4 (Homo sapiens, UniProt P08684).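 Note: CYP3A4 tested as one member of a cytochrome P450 panel screen.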
Cytochrome P450 3A4, sequence (P08684 whole entry): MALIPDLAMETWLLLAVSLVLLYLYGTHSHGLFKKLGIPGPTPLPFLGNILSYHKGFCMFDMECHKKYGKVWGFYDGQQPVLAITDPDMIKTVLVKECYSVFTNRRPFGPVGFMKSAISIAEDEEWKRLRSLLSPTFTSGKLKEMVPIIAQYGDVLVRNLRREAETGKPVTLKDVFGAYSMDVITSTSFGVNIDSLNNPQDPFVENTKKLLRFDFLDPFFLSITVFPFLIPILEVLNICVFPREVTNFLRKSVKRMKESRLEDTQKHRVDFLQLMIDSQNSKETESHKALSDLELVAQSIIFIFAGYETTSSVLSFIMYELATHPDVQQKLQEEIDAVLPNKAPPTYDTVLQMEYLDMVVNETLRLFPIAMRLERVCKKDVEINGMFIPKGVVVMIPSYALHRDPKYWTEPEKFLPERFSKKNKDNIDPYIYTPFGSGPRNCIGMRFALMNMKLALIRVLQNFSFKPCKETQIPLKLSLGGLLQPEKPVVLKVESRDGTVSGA
Settings: not given
What is called AC50 is the concentration at which the activity in the assay is half-maximal. For the compound `CCOC(=O)c1cc2c(=O)n3ccccc3nc2n(CCOC)/c1=N\C(=O)C(C)(C)C`, the AC50 was 31.6 µM (inconclusive).
Still for that read-out and setting: the result for `Cc1ccc(N/C([S-])=C(/C(=O)c2ccc(C)c([N+](=O)[O-])c2)[n+]2ccccc2)cc1C` reads 11.2 µM (inconclusive); that for `Cc1nc2c(ccc3nc(NC(=O)c4ccc(S(=O)(=O)N(C)C)cc4)sc32)s1`, 3.55 µM (inconclusive).
The same measure, in the same setting: the result for `N#CCCn1c(=O)c(-c2cc(F)cc(F)c2)nc2cnc(Oc3cccc(Cl)c3)nc21` reads 10 µM (inconclusive).
Still for that read-out and setting: then `Cc1ccc2c(c1)NCC(C(=O)NC1CCCCC1)O2` (stereo not given), with 31.6 µM (inconclusive).

A further assay concerns the target Cytochrome P450 2D6 (Homo sapiens, UniProt P10635).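 Note: CYP2D6 member of a cytochrome P450 panel assay.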
Settings: not given
With `Cc1ccc(N/C([S-])=C(/C(=O)c2ccc(C)c([N+](=O)[O-])c2)[n+]2ccccc2)cc1C`, the AC50 is 25.1 µM (inconclusive).
The same measure, in the same setting: the result for `Cc1nc([N+](=O)[O-])c(N2CCN(C)CC2)n1Cc1ccccc1` reads 35.5 µM (inconclusive); that for `COc1ccc(-c2noc(CCCC(=O)NCCc3ccccc3)n2)cc1OC`, 22.4 µM (inconclusive).

The next assay has as its target T1, Heat shock factor protein 1 (Mus musculus, UniProt P38532).
T1 sequence (P38532 whole entry): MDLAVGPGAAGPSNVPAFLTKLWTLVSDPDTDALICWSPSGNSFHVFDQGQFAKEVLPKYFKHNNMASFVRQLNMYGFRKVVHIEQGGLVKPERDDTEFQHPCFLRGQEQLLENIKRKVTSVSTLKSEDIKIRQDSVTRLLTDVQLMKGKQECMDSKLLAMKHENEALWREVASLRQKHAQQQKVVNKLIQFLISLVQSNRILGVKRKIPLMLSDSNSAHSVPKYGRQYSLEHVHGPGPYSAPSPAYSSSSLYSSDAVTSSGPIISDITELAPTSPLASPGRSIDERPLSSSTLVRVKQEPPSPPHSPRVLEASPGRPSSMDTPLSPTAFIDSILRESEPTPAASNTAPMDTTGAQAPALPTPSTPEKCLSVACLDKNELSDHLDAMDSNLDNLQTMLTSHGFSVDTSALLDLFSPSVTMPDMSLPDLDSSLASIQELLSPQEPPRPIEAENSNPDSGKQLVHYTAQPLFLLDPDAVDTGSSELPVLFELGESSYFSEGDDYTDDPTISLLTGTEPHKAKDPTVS
The assay can be described thus: enhancement of HSF1-driven luciferase signal – cell-based, NIH3T3, luminescence, dose retest, confirmation (AID 435004).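 Note: stress induced by proteasome inhibitor MG132 added 30 min after compound; luciferase reporter driven by HSF1 response element in NIH3T3 cells; actives raise luminescence as potentiators of the MG132 stress response.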 The class given is functional.
Settings: not given
A word on the EC50: it is the concentration that produces a half-maximal response. For `N#Cc1cc(Cl)c(NCC2CCCO2)cc1C#N` (stereo not given), the EC50 was > 260 µM (inactive).
On the same count and under the same terms, then `N#Cc1c(NC(=O)CSc2nnc(-c3ccccc3)o2)sc2c1CCCC2`, with > 260 µM (inactive).
Still for that read-out and setting: then `COc1ccc(SCC2CN(C)CCC2c2ccc(F)cc2)cc1` (stereo not given), with > 260 µM (inactive); and `CC(=O)/C(=N/Nc1ccc(Br)cc1)N1CCCc2ccccc21`, with 113 µM (active).
Same read-out and setting: the result for `Cc1ccccc1Nc1nnc(C)c(O)n1` reads > 260 µM (inactive); that for `COc1ccc(C)cc1-n1c(SCC(=O)Nc2cccc(C(=O)O)c2)nc2ccccc2c1=O`, > 260 µM (inactive); that for `O=C(CCCc1ccccc1)Nc1ccc2c(c1)OCCO2`, 32.2 µM (active).
As to `O=C(Nc1ccc(S(=O)(=O)N2CCCCC2)cc1)C1CCN(C(=O)c2ccco2)CC1`, the EC50 is > 260 µM (inactive).

The subject of another assay is H4. As to the kind of experiment: Luminescence Cell-Based Dose Response HTS to Identify Activators of 5'UTR Stem-Loop Driven Prion Protein mRNA Translation in H4 Neuroglioblastoma Cells. [Related pubchem assays: 1829 (Project Summary), 1814 (Primary HTS)]. In kind it is functional. Conditions: Homo sapiens.
Turning to `Cc1ccc(N/C([S-])=C(/C(=O)c2ccc(C)c([N+](=O)[O-])c2)[n+]2ccccc2)cc1C`, the EC50 is 46.6 µM (active).

Another assay concerns the target Cytochrome P450 2C19 (Homo sapiens, UniProt P33261). The assay can be described thus: Cytochrome panel assay with activity outcomes. Panel member name: p450-cyp2c19 Compounds with AC50 equal or less than 10 uM are considered active. In kind it is functional. To be noted: read-out: AC50.
Take `CCOC(=O)c1cc2c(=O)n3ccccc3nc2n(CCOC)/c1=N\C(=O)C(C)(C)C`: the AC50 was 20 µM (inconclusive).
Same read-out and setting: the result for `Cc1nc2c(ccc3nc(NC(=O)c4ccc(S(=O)(=O)N(C)C)cc4)sc32)s1` reads 7.94 µM (inconclusive).

System in a further assay: not listed separately
The assay can be described thus: Luminescence Cell-Based Dose Response HTS to Identify Activators of Luciferase Translation or Activity in H4 […] Cells. [Related pubchem assays: 1829 (Project Summary), 1814 (Primary HTS)]. In kind it is functional.
Settings: not given
Regarding `Cc1ccc(N/C([S-])=C(/C(=O)c2ccc(C)c([N+](=O)[O-])c2)[n+]2ccccc2)cc1C`, the EC50 was 16.1 µM (active).

System in a further assay: not listed separately
The assay can be described thus: alpha-synuclein stem-loop luciferase translation blockers – H4 neuroglioma cells, luminescence, confirmation (AID 1988). The class given is functional, cell-based.
Settings: not given
For `CC(=O)/C(=N/Nc1ccc(Br)cc1)N1CCCc2ccccc21`, the EC50 is 14.5 µM (active).

System in a further assay: not listed separately
As to the kind of experiment: luciferase reporter signal suppression in cells – H4 neuroglioma cells, luminescence, dose response (AID 1990). The class given is functional, cell-based.
Settings: not given
On to `CC(=O)/C(=N/Nc1ccc(Br)cc1)N1CCCc2ccccc21`, for which the EC50 is > 120 µM (not active).

The target in another assay is Cytochrome P450 2C9 (Homo sapiens, UniProt P11712).
Cytochrome P450 2C9, sequence (P11712 whole entry): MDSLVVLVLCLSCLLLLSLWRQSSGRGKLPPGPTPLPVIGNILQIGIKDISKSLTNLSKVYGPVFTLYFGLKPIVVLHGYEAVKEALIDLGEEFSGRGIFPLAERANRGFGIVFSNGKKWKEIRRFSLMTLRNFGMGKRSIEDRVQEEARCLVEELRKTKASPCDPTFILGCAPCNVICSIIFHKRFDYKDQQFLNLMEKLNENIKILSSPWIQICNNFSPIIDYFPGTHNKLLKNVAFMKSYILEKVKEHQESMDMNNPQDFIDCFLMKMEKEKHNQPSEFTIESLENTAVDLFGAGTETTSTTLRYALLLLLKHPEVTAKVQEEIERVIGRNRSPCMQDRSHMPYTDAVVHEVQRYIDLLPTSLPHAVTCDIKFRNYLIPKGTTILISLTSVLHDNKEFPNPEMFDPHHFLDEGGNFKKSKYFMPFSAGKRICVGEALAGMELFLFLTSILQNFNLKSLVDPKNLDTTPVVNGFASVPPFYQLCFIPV
Settings: not given
Turning to `CCOC(=O)c1cc2c(=O)n3ccccc3nc2n(CCOC)/c1=N\C(=O)C(C)(C)C`, the AC50 was 17.8 µM (inconclusive).
On the same count and under the same terms, then `Cc1nc2c(ccc3nc(NC(=O)c4ccc(S(=O)(=O)N(C)C)cc4)sc32)s1`, with 0.794 µM (inconclusive).
The same measure, in the same setting: then `N#CCCn1c(=O)c(-c2cc(F)cc(F)c2)nc2cnc(Oc3cccc(Cl)c3)nc21`, with 7.94 µM (inconclusive).
Same read-out and setting: then `Cc1ccc2c(c1)NCC(C(=O)NC1CCCCC1)O2` (stereo not given), with 39.8 µM (inconclusive); and `Cc1nc([N+](=O)[O-])c(N2CCN(C)CC2)n1Cc1ccccc1`, with 39.8 µM (inconclusive).
With `COc1ccc(-c2noc(CCCC(=O)NCCc3ccccc3)n2)cc1OC`, the AC50 is 4.47 µM (inconclusive).

System in a further assay: not listed separately
As to the kind of experiment: Luminescence Cell-Based Dose Confirmation HTS to Identify Activators of 5'UTR Stem-Loop Driven Alpha-Synuclein mRNA Translation in H4 Neuroglioblastoma Cells. [Related pubchem assays: 1829 (Project Summary), 1814 (Primary HTS)]. The class given is functional.
Settings: not given
For `Cc1ccc(N/C([S-])=C(/C(=O)c2ccc(C)c([N+](=O)[O-])c2)[n+]2ccccc2)cc1C`, the concentration giving a half-maximal response (EC50) is 2.37 µM (active).

In a further assay the target is T2, Cytochrome P450 1A2 (Homo sapiens, UniProt P05177).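 Note: PubChem cytochrome P450 panel assay, CYP1A2 panel member.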
T2 sequence (P05177 whole entry): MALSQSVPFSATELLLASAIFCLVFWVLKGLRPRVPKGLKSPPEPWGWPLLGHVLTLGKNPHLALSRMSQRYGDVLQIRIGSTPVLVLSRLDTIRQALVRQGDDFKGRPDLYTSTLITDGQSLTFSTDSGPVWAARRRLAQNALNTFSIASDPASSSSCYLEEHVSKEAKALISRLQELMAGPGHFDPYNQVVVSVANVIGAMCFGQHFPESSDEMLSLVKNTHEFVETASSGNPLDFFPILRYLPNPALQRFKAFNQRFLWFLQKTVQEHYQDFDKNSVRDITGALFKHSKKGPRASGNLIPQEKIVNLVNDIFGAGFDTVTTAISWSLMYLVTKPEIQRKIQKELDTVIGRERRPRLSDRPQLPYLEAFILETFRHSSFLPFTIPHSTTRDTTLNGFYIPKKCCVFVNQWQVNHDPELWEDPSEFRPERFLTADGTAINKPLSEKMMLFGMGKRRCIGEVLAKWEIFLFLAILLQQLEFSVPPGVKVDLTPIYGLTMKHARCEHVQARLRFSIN
Settings: not given
`Cc1nc2c(ccc3nc(NC(=O)c4ccc(S(=O)(=O)N(C)C)cc4)sc32)s1`: the AC50 was 3.16 µM (inconclusive).
Same read-out and setting: the result for `Cc1ccc2c(c1)NCC(C(=O)NC1CCCCC1)O2` (stereo not given) reads 11.2 µM (inconclusive); that for `COc1ccc(-c2noc(CCCC(=O)NCCc3ccccc3)n2)cc1OC`, 15.8 µM (inconclusive).

System in another assay: not listed separately
As to the kind of experiment: viability of uninfected HEp-2 cells – cell-based, HTS, cytotoxicity control for RSV inhibitor project, dose response (AID 2410). The class given is functional. To be noted: human respiratory syncytial virus.
For orientation: CC50 means the concentration at which the toxic effect on the cells reaches its halfway point. For `N#Cc1cc(Cl)c(NCC2CCCO2)cc1C#N` (stereo not given), the CC50 was 20.9 µM (active).
The same measure, in the same setting: then `CC(=O)/C(=N/Nc1ccc(Br)cc1)N1CCCc2ccccc21`, with 12.8 µM (active).

System in a further assay: not listed separately
The assay can be described thus: Luminescence Cell-Based Dose Response HTS to Identify Inhibitors of 5'UTR Stem-Loop Driven Prion Protein mRNA Translation in H4 Neuroglioblastoma Cells. [Related pubchem assays: 1827 (Project Summary), 1813 (Primary HTS)]. In kind it is functional.
Settings: not given
With `CC(=O)/C(=N/Nc1ccc(Br)cc1)N1CCCc2ccccc21`, the EC50 was > 120 µM (not active).
